Results taken from patent publication US20190262291A1, “METHODS AND COMPOSITIONS FOR ALLEVIATING MYOPATHY” (priority 2016, published 2019).
Read-outs that look alike come from different tables or passages of the source.

Columns and labels:
[1] = NOAEL for HMB oral ingestion in rats (Baxter et al.); format: in vivo, rat; settings: for estimated human equivalent dose of rat NOAEL: in vivo, oral; for estimated human equivalent of NOAEL as total amount: assuming a body weight of 150 lbs
Protocol: This is an estimated human equivalent of 558 mg/kg and 665 mg/kg for men and women, respectively; assuming a body weight of 150 lbs equates to 38 g (males) and 45 g (females). […] Overall, standard doses of HMB appear to be well-tolerated over long periods of time.

[2] = tested on: patients with statin-induced myopathy (SIM); test: Example 1: HMB and leucic acid combination therapy in patients with statin-induced myopathy; format: in vivo, human; settings: two patients with SIM on statin, summary
Protocol: The effects of combined administration of HMB and leucic acid was studied in two patients with statin-induced myopathy (SIM). Both patients enrolled were under the care of a board certified cardiologist. […] person with a history of PCI/coronary stent ramus intermedius; historically statin intolerant lipid disorder with LDL=168, total cholesterol=281, with triglycerides=316 on a hypolipidemic regimen of Welchol, 6 tabs/d (for a total of 1500-3000 mg/d) and Zetia, 10 mg/d; unable to achieve goal (i.e., LDL cholesterol <100 mg % in patients with coronary risk factors and <70 mg % in coronary patients (with previous myocardial infarction (MI), percutaneous coronary intervention (PCI), or coronary bypass surgery) as well as patients with peripheral vascular disease and diabetics) off statins and therefore begun on Vytorin, 10/40 mg daily+3-hydroxy 3-methyl butyrate (HMB) at 2 grams BID. […] person with angiographic small vessel disease; type 2 diabetes and type 2a hyperlipidemia; history of statin intolerance with myalgia, weakness and severely elevated CPKs (900-1000 range, normal 200); patient therefore treated with Welchol 6 grams/d and Zetia 10 mg/d with an LDL=185 on this regimen. The patient was subsequently placed on Crestor 20 mg/d+HMB 2 grams BID with a drop in LDL=49 and improved CPK levels (300-400 range).

rats = settings: oral ingestion, cited from earlier work
Human = settings: cited from earlier work
[3] = in vivo; cited from earlier work
[4] = towards oxygenation in humans; cited from earlier work

In the case of `CC(C)(O)CC(=O)O` [HMB, β-hydroxy β-methylbutyrate], the estimated human equivalent dose of rat NOAEL ([1]; female, women) is reported as 665 mg/kg, the “estimated human equivalent of NOAEL as total amount” value ([1]; females) is reported as 45 g and the estimated human equivalent dose of rat NOAEL ([1]; male, men) is reported as 558 mg/kg. The “estimated human equivalent of NOAEL as total amount” value ([1]; males) was 38 g, the “resolution of SIM” value [2] was “incomplete resolution of SIM” and the “No Observed Adverse Effect Level (NOAEL)” value (rats; female rats) was 4160 mg/kg. The “No Observed Adverse Effect Level (NOAEL)” value (rats; male rats) was 3490 mg/kg, the “toxicological parameters in serum” value (Human; 3 g HMB daily for up to 8 weeks, youth and older persons) was “failed to alter toxicological parameters in serum” and the “safety of long-term administration” value (Human; 3 g daily, one year of administration) was “safe”. For the same molecule, the “toxic effects on serum parameters” value (Human; approximately 6 g HMB daily (78 mg/kg) for one month, untrained young males subject to exercise) was “did not show any toxic effects”, the basophils (Human; half the dose (of approximately 6 g daily), considered to be insignificant) was “spontaneous increase in basophils” and the tolerability (Human; standard doses over long periods of time) was “well-tolerated”. The half-lives [3] was “relatively short” and the “time to reach peak levels” value [3] was “quickly”.
In the case of `CC(C)CC(O)C(=O)O` (centres unmarked) [leucic acid, 2-hydroxy-4-methylpentanoic acid], the reaction half time [4] is given as 230 min, the half-lives [3] is given as “relatively short” and the “time to reach peak levels” value [3] is given as “quickly”.
